Assay results: the Kinase Knowledgebase extract (Sharma et al. 2016)

Tests used:
EGFR (Hamster) = EGFR (Hamster) (UniProt P00533); conditions: for IC50: er22; for inhibition: er22, dose or concentration not given here
EGFR = EGFR (UniProt P00533); conditions: for inhibition: concentration not given here
Chain of EGFR (P00533 whole entry, looked up): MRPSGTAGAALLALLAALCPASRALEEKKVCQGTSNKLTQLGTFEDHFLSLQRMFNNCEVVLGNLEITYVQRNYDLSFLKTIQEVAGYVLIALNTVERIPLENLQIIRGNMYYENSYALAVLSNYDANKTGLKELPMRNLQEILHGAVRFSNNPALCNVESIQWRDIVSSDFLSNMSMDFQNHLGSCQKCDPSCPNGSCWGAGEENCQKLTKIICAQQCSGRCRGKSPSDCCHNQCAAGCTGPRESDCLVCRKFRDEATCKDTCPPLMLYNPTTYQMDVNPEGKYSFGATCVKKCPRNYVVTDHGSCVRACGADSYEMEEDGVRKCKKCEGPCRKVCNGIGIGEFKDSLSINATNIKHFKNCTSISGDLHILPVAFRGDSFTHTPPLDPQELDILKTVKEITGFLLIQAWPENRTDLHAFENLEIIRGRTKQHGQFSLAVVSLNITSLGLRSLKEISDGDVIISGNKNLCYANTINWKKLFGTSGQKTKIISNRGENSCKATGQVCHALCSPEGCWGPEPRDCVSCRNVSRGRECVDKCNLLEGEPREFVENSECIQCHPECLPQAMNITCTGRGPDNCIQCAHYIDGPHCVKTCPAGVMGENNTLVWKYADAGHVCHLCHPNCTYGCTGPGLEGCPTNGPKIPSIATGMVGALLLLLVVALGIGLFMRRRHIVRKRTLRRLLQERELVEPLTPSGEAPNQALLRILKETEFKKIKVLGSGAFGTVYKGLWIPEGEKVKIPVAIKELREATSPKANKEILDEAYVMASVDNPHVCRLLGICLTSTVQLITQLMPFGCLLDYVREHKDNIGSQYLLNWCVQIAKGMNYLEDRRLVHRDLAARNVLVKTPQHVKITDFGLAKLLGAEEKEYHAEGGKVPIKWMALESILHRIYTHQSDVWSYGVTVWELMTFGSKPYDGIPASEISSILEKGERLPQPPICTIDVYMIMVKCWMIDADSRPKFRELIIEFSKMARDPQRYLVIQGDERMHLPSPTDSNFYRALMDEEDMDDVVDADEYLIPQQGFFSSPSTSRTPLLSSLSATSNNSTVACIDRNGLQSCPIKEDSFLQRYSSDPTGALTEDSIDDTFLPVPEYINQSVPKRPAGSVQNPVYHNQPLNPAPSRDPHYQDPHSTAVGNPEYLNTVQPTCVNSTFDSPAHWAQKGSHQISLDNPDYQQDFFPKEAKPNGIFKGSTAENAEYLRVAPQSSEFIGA

Chain of EGFR (Hamster) (P00533 whole entry, looked up): as above

| SMILES | IC50 (EGFR (Hamster)) [µM] | inhibition (EGFR (Hamster)) [%] | inhibition (EGFR) [%] | other results |
| --- | --- | --- | --- | --- |
| O=C(Oc1cccc(O)c1)c1cc(NCc2cc(O)ccc2O)ccc1O | > 5 | 0 |  |  |
| CC(C)(C)ONC(=O)c1cc(N=Cc2cc(O)ccc2O)ccc1O | > 20 | 0 |  |  |
| CCCCCCCCCCCCCCCCOC(=O)c1cc(NCc2cc(O)ccc2O)ccc1O |  | 0 | 0 |  |
| CC(CCOC(=O)c1cc(NCc2cc(O)ccc2O)ccc1O)CC(C)(C)C (configuration not stated) |  |  | 0 |  |
| CONC(=O)c1cc(N=Cc2cc(O)ccc2O)ccc1O | > 100 |  |  |  |
| CC(COC(=O)c1cc(N=Cc2cc(O)ccc2O)ccc1O)CC(C)(C)C (configuration not stated) |  |  | 0 |  |
| CC(C)(C)OC(=O)c1cc(N=Cc2cc(O)ccc2O)ccc1O | > 10 |  |  |  |
| O=C(Oc1ccc2ccccc2c1)c1cc(NCc2cc(O)ccc2O)ccc1O |  |  |  | IC100 (EGFR): 0.09 µM |
| CC(C)(C)CCOC(=O)c1cc(N=Cc2cc(O)ccc2O)ccc1O | > 2 | 0 |  |  |
| O=C(OCCC1[C@H]2C[C@@H]3C[C@@H](C[C@H]1C3)C2)c1cc(NCc2cc(O)ccc2O)ccc1O (some centres not stated) | 1.25 |  | 0 | IC50 (EGFR): > 5 µM |
| O=C(Cc1cc(N=Cc2cc(O)ccc2O)ccc1O)NOCc1ccccc1 |  | 61 |  |  |
